The results in this text go back to patent US20240252488A1 (KOREA RESEARCH INSTITUTE OF CHEMICAL TECHNOLOGY, priority 2020, published 2024).

The subject of one assay is FADD−/− Jurkat cells. In words: Necroptosis inhibition assay, TNF-α-induced necroptosis (CellTiter-Glo 2.0). The class given is cell-based, human. As to conditions: TNF-α 15 ng/mL; for Necroptosis inhibition assay (Rescue %) 1 μM: compound 1 μM; for Necroptosis inhibition assay (Rescue %) 10 μM: compound 10 μM; for Necroptosis inhibition assay (Rescue %) 1.1 μM: compound 1.1 µM. An outline of the steps:
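Necroptosis was triggered by TNF-α at 15 ng/mL final following 30 minutes of compound exposure (0.1, 1 or 10 μM final). Incubation ran 20 to 24 hours at 37° C under 5% CO2; cell ATP was then quantified by luminescence.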
For orientation: ATP-based viability assays read luminescence as a measure of living cells.

Assay [1] addresses T1, MLKL (Homo sapiens, UniProt Q8NB16).
T1 sequence (Q8NB16 1-471): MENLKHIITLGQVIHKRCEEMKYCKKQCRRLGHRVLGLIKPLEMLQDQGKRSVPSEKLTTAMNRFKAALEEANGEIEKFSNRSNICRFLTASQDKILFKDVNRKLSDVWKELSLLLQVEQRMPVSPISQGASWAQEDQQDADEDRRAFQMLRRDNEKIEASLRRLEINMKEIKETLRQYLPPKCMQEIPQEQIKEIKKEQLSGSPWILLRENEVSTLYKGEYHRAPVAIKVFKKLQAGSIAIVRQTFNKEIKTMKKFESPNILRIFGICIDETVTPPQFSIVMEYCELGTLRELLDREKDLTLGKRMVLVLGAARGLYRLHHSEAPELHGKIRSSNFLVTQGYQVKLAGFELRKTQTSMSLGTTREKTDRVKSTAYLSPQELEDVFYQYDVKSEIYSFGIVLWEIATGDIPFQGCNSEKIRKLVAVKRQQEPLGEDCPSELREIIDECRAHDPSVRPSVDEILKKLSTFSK
In words: Measurement of binding affinity with MLKL receptor (competitive binding assay, Kd). More on the design: made in house; host or cells: HEK 293 cell line (T7 phage in E. coli BL21-derived host is also described). An outline of the steps: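 HEK 293-expressed, DNA-tagged MLKL; ligand beads blocked with biotin and SeaBlock/1% BSA/0.05% Tween 20/1 mM DTT buffer. Cpd from 111× DMSO stock, 0.9% DMSO final. Eluted kinase by qPCR → Kd.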

Assay [2] concerns the target T1, MLKL. The assay is described as follows: MLKL degradation assay in HepG2 cell line (western blot). The assay is classed as cell-based. More on the design: endogenous in cells; host or cells: HepG2 or HaCaT. As to conditions: cell line not given; for Degradation assay (Degradation %) 1 μM: compound 1 μM; for Degradation assay (Degradation %) 10 μM: compound 10 μM. An outline of the steps:
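After treating HepG2 with test compounds (final 1 μM or 10 μM) for 20-24 h, we lysed cells, equalized protein by BCA and probed MLKL by overnight primary antibody at 4 °C followed by chemiluminescent detection.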
On the technique in general: A western blot detects proteins with antibodies after separation by electrophoresis.

The term Kd denotes the concentration at which binding is half-saturated. Regarding `Nc1ncc(-c2cnn(C3CCN(CCOC4CCN(c5ccc6c(c5)C(=O)N(C5CCC(=O)NC5=O)C6=O)CC4)CC3)c2)nc1C(=O)OC(C(=O)Nc1ccc(F)cc1)c1ccccc1` (stereo not shown) [TDH-254, 2-((4-fluorophenyl)amino)-2-oxo-1-phenylethyl 3-amino-6-(1-(1-(2-((1-(2-(2,6-dioxopiperidin-3-yl)-1,3-dioxoisoindolin-5-yl)piperidin-4-yl)oxy)ethyl)piperidin-4-yl)-1H-pyrazol-4-yl)pyrazine-2-carboxylate], in the assay on FADD−/− Jurkat cells, the “Necroptosis inhibition assay (Rescue %) 1 μM” value is 24.05% and the “Necroptosis inhibition assay (Rescue %) 10 μM” value was found to be 15.37%. On MLKL [1], this compound had a Kd of 8 nM. In addition, at MLKL [2], the “Degradation assay (Degradation %) 1 μM” value is reported as 19.16% and the “Degradation assay (Degradation %) 10 μM” value was determined as 25.97%.

With `Nc1ncc(-c2cnn(C3CCN(CCOC4CCN(C(=O)COc5cccc6c5C(=O)N(C5CCC(=O)NC5=O)C6=O)CC4)CC3)c2)nc1C(=O)O[C@@H](C(=O)Nc1ccc(F)cc1)c1ccccc1` (stereo partly drawn) [TDH-331, (R)-2-((4-fluorophenyl)amino)-2-oxo-1-phenylethyl 3-amino-6-(1-(1-(2-((1-(2-((2-(2,6-dioxopiperidin-3-yl)-1,3-dioxoisoindolin-4-yl)oxy)acetyl)piperidin-4-yl)oxy)ethyl)piperidin-4-yl)-1H-pyrazol-4-yl)pyrazine-2-carboxylate], in the assay on FADD−/− Jurkat cells, the “Necroptosis inhibition assay (Rescue %) 1.1 μM” value is listed as 49.38 (1.1 µM) % and the “Necroptosis inhibition assay (Rescue %) 10 μM” value was 47.13%. On MLKL [1], this compound displayed a Kd of 2.6 nM. Further, on MLKL [2], the “Degradation assay (Degradation %) 1 μM” value stood at 54.86% and the “Degradation assay (Degradation %) 10 μM” value is 60.37%.

For `Nc1ncc(-c2cnn(C3CCN(CCC4CCN(C(=O)C5CN(c6ccc7nnn(C8CCC(=O)NC8=O)c(=O)c7c6)C5)CC4)CC3)c2)nc1C(=O)O[C@@H](C(=O)Nc1ccc(F)cc1)c1ccccc1` (stereo partly drawn) [TDH-333, (R)-2-((4-fluorophenyl)amino)-2-oxo-1-phenylethyl 3-amino-6-(1-(1-(2-(1-(1-(3-(2,6-dioxopiperidin-3-yl)-4-oxo-3,4-dihydrobenzo[d][1,2,3]triazin-6-yl)azetidine-3-carbonyl)piperidin-4-yl)ethyl)piperidin-4-yl)-1H-pyrazol-4-yl)pyrazine-2-carboxylate], in the assay with FADD−/− Jurkat cells, the “Necroptosis inhibition assay (Rescue %) 1.1 μM” value is given as 58.92 (1.1µM) % and the “Necroptosis inhibition assay (Rescue %) 10 μM” value is 36.65%. On MLKL [1], this compound had a Kd of 4.1 nM. For the same compound, at MLKL [2], the “Degradation assay (Degradation %) 1 μM” value amounted to 57.66% and the “Degradation assay (Degradation %) 10 μM” value is given as 71.32%.

With `Nc1ncc(-c2cn(C3CCN(CC4CCN(C(=O)CNc5ccc6c(c5)C(=O)N(C5CCC(=O)NC5=O)C6=O)CC4)CC3)nn2)nc1C(=O)OC(C(=O)Nc1ccc(F)cc1)c1ccccc1` (stereo not shown) [TDH-223, 2-((4-fluorophenyl)amino)-2-oxo-1-phenylethyl 3-amino-6-(1-(1-((1-((2-(2,6-dioxopiperidin-3-yl)-1,3-dioxoisoindolin-5-yl)glycyl)piperidin-4-yl)methyl)piperidin-4-yl)-1H-1,2,3-triazol-4-yl)pyrazine-2-carboxylate], in the assay on FADD−/− Jurkat cells, the “Necroptosis inhibition assay (Rescue %) 1 μM” value came to 34.97% and the “Necroptosis inhibition assay (Rescue %) 10 μM” value came out at 23.64%. Also, the affinity at MLKL [1], expressed as Kd, was 23 nM. On MLKL [2], the “Degradation assay (Degradation %) 1 μM” value stood at 29.38% and the “Degradation assay (Degradation %) 10 μM” value is 12.51%.

On to `Nc1ncc(-c2cn(C3CCN(CC4CCN(c5ccc6c(c5)C(=O)N(C5CCC(=O)NC5=O)C6=O)CC4)CC3)nn2)nc1C(=O)OC(C(=O)Nc1ccc(F)cc1)c1ccccc1` (stereo not shown) [TDH-226, 2-((4-fluorophenyl)amino)-2-oxo-1-phenylethyl 3-amino-6-(1-(1-((1-(2-(2,6-dioxopiperidin-3-yl)-1,3-dioxoisoindolin-5-yl)piperidin-4-yl)methyl)piperidin-4-yl)-1H-1,2,3-triazol-4-yl)pyrazine-2-carboxylate], for which, in the assay on FADD−/− Jurkat cells, the “Necroptosis inhibition assay (Rescue %) 1 μM” value is 36.17% and the “Necroptosis inhibition assay (Rescue %) 10 μM” value is listed as 17.82%. On MLKL [1], this compound displayed a Kd of 16 nM. Moreover, the “Degradation assay (Degradation %) 10 μM” value on MLKL [2] is 36.06%.

Take `COc1ccc(C(=O)N2CCC(CN3CCC4(CC3)CC(N3CCC(n5cc(-c6cnc(N)c(C(=O)O[C@@H](C(=O)Nc7ccc(F)cc7)c7ccccc7)n6)cn5)CC3)C4)CC2)cc1N1CCC(=O)NC1=O` [TDH-499, (R)-2-((4-fluorophenyl)amino)-2-oxo-1-phenylethyl 3-amino-6-(1-(1-(7-((1-(3-(2,4-dioxotetrahydropyrimidin-1(2H)-yl)-4-methoxybenzoyl)piperidin-4-yl)methyl)-7-azaspiro[3.5]nonan-2-yl)piperidin-4-yl)-1H-pyrazol-4-yl)pyrazine-2-carboxylate]: in the assay with FADD−/− Jurkat cells (FADD−/− Jurkat cells), the “Necroptosis inhibition assay (Rescue %) 1 μM” value is given as 45.83% and the “Necroptosis inhibition assay (Rescue %) 10 μM” value is 11.8%. Besides, the Kd on MLKL [1] was found to be 0.41 nM. On MLKL [2], the “Degradation assay (Degradation %) 1 μM” value worked out at 90.60% and the “Degradation assay (Degradation %) 10 μM” value came to 91.41%.

Consider `Nc1ncc(-c2cnn(C3CCN(CC4CCN(CC(=O)NCCNc5cccc6c5C(=O)N(C5CCC(=O)NC5=O)C6=O)CC4)CC3)c2)nc1C(=O)OC(C(=O)Nc1ccc(F)cc1)c1ccccc1` (stereo not shown) [TDH-234, 2-((4-fluorophenyl)amino)-2-oxo-1-phenylethyl 3-amino-6-(1-(1-((1-(2-((2-((2-(2,6-dioxopiperidin-3-yl)-1,3-dioxoisoindolin-4-yl)amino)ethyl)amino)-2-oxoethyl)piperidin-4-yl)methyl)piperidin-4-yl)-1H-pyrazol-4-yl)pyrazine-2-carboxylate], for which, in the assay on FADD−/− Jurkat cells, the “Necroptosis inhibition assay (Rescue %) 1 μM” value is 35.55% and the “Necroptosis inhibition assay (Rescue %) 10 μM” value amounted to 26.56%. The compound also came in with a Kd at MLKL [1] of 1.6 nM. On MLKL [2], the “Degradation assay (Degradation %) 1 μM” value amounted to 64.08% and the “Degradation assay (Degradation %) 10 μM” value was determined as 54.89%.

As to `Nc1ncc(-c2cnn(C3CN(CC4CCN(C(=O)CNc5cccc6c5C(=O)N(C5CCC(=O)NC5=O)C6=O)CC4)C3)c2)nc1C(=O)OC(C(=O)Nc1ccc(F)cc1)c1ccccc1` (stereo not shown) [TDH-296, 2-((4-fluorophenyl)amino)-2-oxo-1-phenylethyl 3-amino-6-(1-(1-((1-((2-(2,6-dioxopiperidin-3-yl)-1,3-dioxoisoindolin-4-yl)glycyl)piperidin-4-yl)methyl)azetidin-3-yl)-1H-pyrazol-4-yl)pyrazine-2-carboxylate], in the assay on FADD−/− Jurkat cells, the “Necroptosis inhibition assay (Rescue %) 1 μM” value is on record as 25.58% and the “Necroptosis inhibition assay (Rescue %) 10 μM” value turned out to be 26.91%. This compound gave a Kd on MLKL [1] of 22 nM. At MLKL [2], the “Degradation assay (Degradation %) 1 μM” value is given as 75.78% and the “Degradation assay (Degradation %) 10 μM” value was 62.01%.

Take `Nc1ncc(-c2cnn(C3CCN(C(=O)CC4CCN(C(=O)C5CCN(c6cccc7nnn(C8CCC(=O)NC8=O)c(=O)c67)CC5)CC4)CC3)c2)nc1C(=O)O[C@@H](C(=O)Nc1ccc(F)cc1)c1ccccc1` (stereo partly drawn) [TDH-412, (R)-2-((4-fluorophenyl)amino)-2-oxo-1-phenylethyl 3-amino-6-(1-(1-(2-(1-(1-(3-(2,6-dioxopiperidin-3-yl)-4-oxo-3,4-dihydrobenzo[d][1,2,3]triazin-5-yl)piperidine-4-carbonyl)piperidin-4-yl)acetyl)piperidin-4-yl)-1H-pyrazol-4-yl)pyrazine-2-carboxylate]: in the assay on FADD−/− Jurkat cells (FADD−/− Jurkat cells), the “Necroptosis inhibition assay (Rescue %) 1 μM” value is reported as 24.36% and the “Necroptosis inhibition assay (Rescue %) 10 μM” value was 29.48%. The compound also yielded a Kd at MLKL [1] of 2.5 nM. Further, on MLKL [2], the “Degradation assay (Degradation %) 1 μM” value was found to be 72.66% and the “Degradation assay (Degradation %) 10 μM” value is listed as 72.89%.

In the case of `Nc1ncc(-c2cnn(C3CCN(C(=O)CCC4CCN(C(=O)COc5ccc6nnn(C7CCC(=O)NC7=O)c(=O)c6c5)CC4)CC3)c2)nc1C(=O)O[C@@H](C(=O)Nc1ccc(F)cc1)c1ccccc1` (stereo partly drawn) [TDH-437, (R)-2-((4-fluorophenyl)amino)-2-oxo-1-phenylethyl 3-amino-6-(1-(1-(3-(1-(2-((3-(2,6-dioxopiperidin-3-yl)-4-oxo-3,4-dihydrobenzo[d][1,2,3]triazin-6-yl)oxy)acetyl)piperidin-4-yl)propanoyl)piperidin-4-yl)-1H-pyrazol-4-yl)pyrazine-2-carboxylate], in the assay with FADD−/− Jurkat cells (FADD−/− Jurkat cells), the “Necroptosis inhibition assay (Rescue %) 1 μM” value was 42.82% and the “Necroptosis inhibition assay (Rescue %) 10 μM” value worked out at 23.20%. Also, the affinity on MLKL [1], expressed as Kd, was 1.3 nM. At MLKL [2], the “Degradation assay (Degradation %) 1 μM” value was determined as 87.34% and the “Degradation assay (Degradation %) 10 μM” value stood at 79.50%.
